Assay results reported in PubChem BioAssay (NCI).
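Five concentrations, 48 hours, 96-well plates. Definition used: TGI = concentration required for complete inhibition of growth.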

Assays:
Test in all cases: NCI tumour cell line growth inhibition, 48 h
786-0 renal = test system: 786-0 renal
CAKI-1 renal = test system: CAKI-1 renal
COLO 205 colon = test system: COLO 205 colon
OVCAR-5 ovarian = test system: OVCAR-5 ovarian
OVCAR-8 ovarian = test system: OVCAR-8 ovarian
RPMI-8226 leukemia = test system: RPMI-8226 leukemia
SF-268 CNS = test system: SF-268 CNS
SK-MEL-5 melanoma = test system: SK-MEL-5 melanoma
SNB-75 CNS = test system: SNB-75 CNS
SR leukemia = test system: SR leukemia

SMILES | TGI (786-0 renal) | TGI (CAKI-1 renal) | TGI (COLO 205 colon) | TGI (OVCAR-5 ovarian) | TGI (OVCAR-8 ovarian) | TGI (RPMI-8226 leukemia) | TGI (SF-268 CNS) | TGI (SK-MEL-5 melanoma) | TGI (SNB-75 CNS) | TGI (SR leukemia)
COc1ccc(-c2cc(-c3ccc(C)cc3)n(C3OC(COC(C)=O)C(OC(C)=O)C(OC(C)=O)C3OC(C)=O)c(=S)c2C#N)cc1 (stereo not given) | > 100 µM | > 100 µM | > 100 µM | > 100 µM | > 100 µM | > 100 µM | > 100 µM | > 100 µM | 92 µM | > 100 µM
N=c1oc2ccc3ccccc3c2cc1-c1nc2ccccc2c(=O)[nH]1 | > 100 µM | > 100 µM | > 100 µM | > 100 µM | > 100 µM | > 100 µM | > 100 µM | > 100 µM | 19.6 µM | > 100 µM
O=C1/C(=C/c2cccc([N+](=O)[O-])c2)N=C(c2ccccc2)N1c1nc2ccc(Sc3ccccc3)cc2[nH]1 | > 100 µM | > 100 µM | 96.8 µM | > 100 µM | > 100 µM | > 100 µM | > 100 µM | > 100 µM | > 100 µM | > 100 µM
O=C(Cn1c2ccc(Br)cc2c2nc3ccccc3nc21)NCc1ccccc1 | 39 µM | > 100 µM | > 100 µM | > 100 µM | > 100 µM | > 100 µM | > 100 µM | > 100 µM | 19.8 µM | > 100 µM
CCN(CC)Cc1cc(N=Nc2c(O)ccc3c(N=Nc4ccc(O)c(CN(CC)CC)c4)c(O)ccc23)ccc1O | 3.75 µM | 8.25 µM | 3.6 µM | > 44.9 µM | 5.27 µM | 19 µM | 33.8 µM | 7.42 µM | 27.7 µM | 8.53 µM
Nc1cc(CO)cc(Nc2c3ccccc3nc3ccccc23)c1 | 30.4 µM | 31.7 µM | 23.8 µM | 32.2 µM | 29.5 µM | > 100 µM | 60 µM | 30.8 µM | 34.5 µM | > 100 µM
Cc1cc2ncn(CC(=O)O)c2cc1C | > 100 µM | > 100 µM | > 100 µM | > 100 µM | > 100 µM | > 100 µM | > 100 µM | > 100 µM | > 100 µM | > 100 µM
COc1ccc(-c2cc(=O)c3c(O)c(O)c(OC)cc3o2)cc1O | > 100 µM | > 100 µM | > 100 µM | > 100 µM | > 100 µM | > 100 µM | > 100 µM | > 100 µM | > 100 µM | > 100 µM
COc1cc(/C=C/C(=O)CC(=O)/C=C/c2cc(C)c(O)c(OC)c2)cc(C)c1O | > 100 µM | > 100 µM | > 100 µM | > 100 µM | > 100 µM | > 100 µM | > 100 µM | > 100 µM | > 100 µM | > 100 µM
O=C(CC(C(=O)c1ccsc1)c1cccs1)c1ccccc1 (stereo not given) | > 100 µM | > 100 µM | > 100 µM | > 100 µM | > 100 µM | > 100 µM | > 100 µM | > 100 µM | > 100 µM | > 100 µM
COc1c(C(=O)/C(=N/Nc2ccc(C(=O)O)cc2)C(C)=O)c(O)cc2occc12 | > 100 µM | > 100 µM | > 100 µM | > 100 µM | > 100 µM | > 100 µM | > 100 µM | > 100 µM | > 100 µM | > 100 µM
CC(C#N)(NO)C(C)(C#N)NO (stereo not given) | > 100 µM | > 100 µM | > 100 µM | > 100 µM | > 100 µM | > 100 µM | > 100 µM | > 100 µM | > 100 µM | > 100 µM
CS(=O)(=O)OCCN(CCOS(C)(=O)=O)c1ccc(C=Nc2ccc(-c3csc(Cc4ccccc4)n3)cc2)c(Cl)c1 | > 68.3 µM | 13.5 µM | 36 µM | 99.1 µM | > 66 µM | > 100 µM | > 100 µM | 40.2 µM | > 68.1 µM | 74.3 µM
O=C1CCCC2=C1CC1=C(CCCC1=O)N2c1ccc(Cl)cc1 | > 100 µM | > 100 µM | > 100 µM | > 100 µM | > 100 µM | > 100 µM | > 100 µM | > 100 µM | > 100 µM | > 100 µM
COc1cc2c(cc1OC)C(CCN)=NCC2 | 18.4 µM | 25.2 µM | 27.4 µM | > 57.8 µM | 33.1 µM | 29.9 µM | 36.3 µM | 35.6 µM | 33 µM | 23.8 µM
